What all share (experiment): NCI tumour cell line growth inhibition, 48 h
In test [1] the test system is 786-0 renal.
Test [2] concerns ACHN renal.
Test [3] deals with HOP-62 NSCLC.
The subject of test [4] is KM12 colon.
Test [5] relates to MCF7 breast.
Test [6] deals with MDA-MB-435.
Test [7] relates to NCI-H23 lung.
Test [8] has as its system SF-295 CNS.
Test [9] deals with SNB-75 CNS.
In test [10] the test system is SR leukemia.

Where “and” joins values, the source holds several entries; their conditions need not be identical. Equal entries are not always repeated.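 Assay format: 96-well plates, 48-hour exposure. GI50 is the concentration that inhibits growth by half. TGI marks complete inhibition of growth.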

On to `CCC[CH2][Sn]1([CH2]CCC)[O]C(=O)c2cccc([N+](=O)[O-])c2C(=O)[O]1`, for which the GI50 in test [1] is 0.724 µM; in test [2] it was 0.348 µM; in test [3], 1.92 µM; in test [4], 1.6 µM; in [5], 0.244 µM; in test [6], 0.594 µM. Also, the GI50 in [7] was 0.301 µM; in test [8] it was 1.55 µM; in [9] it was 0.324 µM; in test [10], 0.28 µM. Also, the TGI amounted to 1.99 µM in test [1]; 1.27 µM in test [2]; 3.36 µM in test [3]; 3.16 µM in test [4]; 1.13 µM in test [5]; 1.91 µM in test [6]. Besides, the TGI in test [7] was determined as 1.19 µM; in test [8], 2.95 µM; in [9], 1.64 µM; in test [10], 1.97 µM.

Regarding `CCC(=O)OCOc1ccc(/C=C2\CCC(CN(C)C)C2=O)cc1` (configuration not stated), the TGI in test [1] was 6.2 µM; in [2] it was 20.4 µM; in test [3], 33.5 µM; in test [4], 13 µM; in [5], 10.1 µM; in test [6], 10.6 µM. Further, the TGI in [7] stood at 15.8 µM; in test [8] it was 20.5 µM; in test [9], 27.6 µM; in [10], 9.25 µM.

For `Cc1c(C(=O)Nc2ccc(N3C[C@@H](C)O[C@@H](C)C3)nc2)cccc1-c1ccc(OC(F)(F)F)cc1`, the GI50 in test [1] is 3.61 µM and 5.77 µM; in [2], 5.6 µM and 14.4 µM; in [3] it was 12.2 µM and 16.5 µM; in [4], 12.7 µM and 9.64 µM; in test [5], 8.25 µM and 15.4 µM; in test [6], 7.29 µM and 5.89 µM. Also, the GI50 in test [7] was 5.98 µM and 12.4 µM; in test [8] it was 5.34 µM and 3.84 µM; in test [9] it was 10.1 µM and 12.9 µM; in [10] it was 28.2 µM and > 100 µM. In addition, the TGI in test [1] is 21 µM and 30 µM; in [2], 23.3 µM and 44.1 µM; in [3] it was 46.2 µM and 36.8 µM; in [4], 59 µM and 50.4 µM; in [5], 31 µM and 49 µM; in [6], 49.2 µM and 38 µM. Further, the TGI in test [7] was 25.5 µM and 40.4 µM; in test [8] it was 26.5 µM and 26.1 µM; in [9], 25.8 µM and 32.5 µM; in test [10], > 100 µM.

`Nc1nc(N)c2c(ccc3c2ccn3Cc2cccc([N+](=O)[O-])c2)n1`: the GI50 in test [1] is 0.0411 µM; in test [2], 0.0372 µM; in test [3], 0.0654 µM; in [4], 0.0937 µM and 0.129 µM; in [5], 0.0565 µM and 0.0293 µM; in [6], 0.0217 µM. The GI50 was 0.0566 µM in [7], 1.11 µM in test [9] and 0.00779 µM in test [10]. For the same compound, the TGI in [1] was 1.5 µM; in [2], 1.74 µM; in test [3], 1.87 µM; in [4] it was 2.21 µM and 1.95 µM; in test [5] it was 2.72 µM and 1.45 µM; in test [6] it was 2.4 µM and 2.59 µM. Besides, the TGI in [7] was 2.46 µM; in test [8], 3.49 µM and 4.55 µM; in test [9], 2.36 µM.

For the compound `CC1Cc2c(Cl)ncnc2N(C)c2ccccc21` (configuration not stated), the GI50 in test [1] is 3.23 µM; in test [2], 3.79 µM; in test [3], 3.08 µM; in test [4], 3.33 µM; in [5], 3.17 µM; in test [6], 3.24 µM. Also, the GI50 is 2.82 µM in test [7], 3.28 µM in [8], 0.352 µM in test [9] and 3.33 µM in test [10]. For the same compound, the TGI in [1] was 11.5 µM; in test [2], > 100 µM; in test [3], 14.7 µM; in [4] it was > 100 µM; in [5] it was 14.5 µM; in test [6] it was 16.7 µM. In addition, the TGI in test [7] amounted to 10.9 µM; in test [8] it was 37.4 µM; in [9] it was 33.5 µM; in [10], 32.6 µM.

In the case of `O=C1/C=C/[C@@H](O)[C@@H]2C[C@@H](O)C[C@H]2/C=C/CCC[C@H](CCO)O1`, the GI50 in test [1] was 0.0362 µM; in [2], 0.343 µM; in [3] it was 0.237 µM; in [4], 0.0584 µM; in test [5], 0.188 µM; in test [6] it was 0.254 µM. In addition, the GI50 in [7] is 0.227 µM; in [8], 0.29 µM; in test [9] it was 0.0994 µM; in [10], 0.297 µM. The TGI in test [1] was 0.142 µM; in [2] it was > 100 µM; in test [3], > 31.6 µM; in test [4] it was 0.268 µM; in test [5] it was 0.558 µM; in test [6], > 100 µM. The TGI in [7] was 2.3 µM; in test [8] it was > 100 µM; in [9] it was > 100 µM.

Take `O=C1C2=C(C(=O)c3ccccc31)C(O)(S(=O)(=O)O)C(O)(S(=O)(=O)O)C1N=CC=CC21` (configuration not stated): the GI50 is 5.03 µM and 4.29 µM in test [1]; 4.47 µM and 3.83 µM in test [2]; 5.36 µM and 3.03 µM in [3]; 4.33 µM and 4.8 µM in test [4]; 4.9 µM and 3.26 µM in test [5]; 4.56 µM and 3.56 µM in test [6]. Also, the GI50 in test [7] was 3.87 µM and 3.49 µM; in test [8] it was 2.57 µM and 1.13 µM; in test [9] it was 4.08 µM and 3.17 µM; in test [10], 4.58 µM and 1.14 µM. The TGI in test [1] is 25 µM and 17.4 µM; in test [2], 39.2 µM and 19.3 µM; in test [3], 31.8 µM and 19.2 µM; in test [4] it was 67.4 µM and 20 µM; in test [5], 29.1 µM and 27.2 µM; in test [6], 80.5 µM and 24.8 µM. For the same compound, the TGI in test [7] is 27.6 µM and 18.8 µM; in test [8] it was 6.68 µM and 8.19 µM; in [9], 41.9 µM and 19.6 µM; in test [10], > 100 µM and 50.1 µM.

Regarding `CCOC(=O)C1=C(Nc2ccc(OC)cc2)C(N)=NC1=N`, the GI50 is 5.04 µM in [1]; 8.84 µM in [2]; 6.23 µM in test [3]; 2.64 µM in [4]; 0.587 µM in test [5]; 0.336 µM in test [6]. Also, the GI50 was 4.84 µM in test [7], 2.71 µM in [8], 3.03 µM in [9] and 2.31 µM in [10]. For the same compound, the TGI in [1] was > 100 µM; in [2] it was > 100 µM; in test [3], > 100 µM; in [4], > 100 µM; in [5] it was > 100 µM; in [6] it was 1.5 µM. Also, the TGI in [7] is > 100 µM; in test [8], 8.32 µM; in [9], > 100 µM; in test [10] it was > 100 µM.

The values are drawn from PubChem BioAssay (NCI).
